Reference: patent publication US12227482B2, “Compounds and compositions for the treatment of cancer” (The Regents of the University of California, priority 2016, dated 2025)

Assays:
Type in all cases: cell-based
LOX cells = test: Cell viability (CellTiter-Glo ATP content) in LOX cells; settings: LOX, 72 h, 72 hours treatment, cell survival by CellTiter-Glo, 2% fetal bovine serum
Protocol: (§1) Logarithmically growing A549, LOX and MelJuSo cells (ATCC) were plated in antibiotic-free RPMI medium (Coming) supplemented with 2% fetal bovine serum (Gemini Bio-products) at a density of 5,000 cells per well in clear-bottom 96-well plates. The next day cells were treated (triplicates) with increasing doses of a compound of the present disclosure (dissolved in DMSO) and DMSO vehicle controls (final DMSO concentration of 0.5%) for 72 hours and subsequently assessed for cell viability by measuring ATP content with CellTiter-Glo Luminescent Cell Viability Assay (Promega). Signal intensity was measured on a Glomax™ 96 Microplate Luminometer (Promega) and percent cell survival was calculated based on the reading of vehicle control cells set as 100%.

MelJuSo cells = test: Cell viability (CellTiter-Glo ATP content) in MelJuSo cells; settings: Homo sapiens, MEL-JUSO, 72 hours treatment, cell survival by CellTiter-Glo, 2% fetal bovine serum
Protocol: as §1

A549 cells = test: Cell viability (CellTiter-Glo ATP content) in A549 cells; settings: Homo sapiens, A549, 72 h, 72 hours treatment, cell survival by CellTiter-Glo, 2% fetal bovine serum
Protocol: as §1

SMILES | IC50 (LOX cells) [µM] | IC50 (MelJuSo cells) [µM] | IC50 (A549 cells) [µM]
CCCCC1C(c2ccc(F)cc2)=NN(c2ccccc2)C1(C)C(=O)NCCCC(C)(C)CO (centres unmarked) [Compound 1, 4-butyl-3-(4-fluorophenyl)-N-(5-hydroxy-4,4-dimethylpentyl)-5-methyl-1-phenyl-4,5-dihydro-1H-pyrazole-5-carboxamide] | 0.5 to 1 | 0.25 to 0.5 | 0.5 to 1
CCCCC1C(c2ccc(F)cc2)=NN(c2ccccc2)C1(C)C(=O)NCCCCC(C)(C)O (centres unmarked) [Compound 2, 4-butyl-3-(4-fluorophenyl)-N-(5-hydroxy-5-methylhexyl)-5-methyl-1-phenyl-4,5-dihydro-1H-pyrazole-5-carboxamide] | 1 to 2 | 0.5 to 1 | 1 to 2
CCCCC1C(c2ccc(F)cc2)=NN(c2ccc(F)cc2F)C1(C)C(=O)NCCCC(C)(C)CO (centres unmarked) [Compound 3, 4-butyl-1-(2,4-difluorophenyl)-3-(4-fluorophenyl)-N-(5-hydroxy-4,4-dimethylpentyl)-5-methyl-4,5-dihydro-1H-pyrazole-5-carboxamide] | 0.5 to 1 | 0.5 to 1 | 0.5 to 1
CCCCC1C(c2ccc(F)cc2)=NN(c2ccc(F)cc2F)C1(C)C(=O)NCCCCC(C)(C)O (centres unmarked) [Compound 4, 4-butyl-1-(2,4-difluorophenyl)-3-(4-fluorophenyl)-N-(5-hydroxy-5-methylhexyl)-5-methyl-4,5-dihydro-1H-pyrazole-5-carboxamide] | 0.5 to 1 | 0.5 to 1 | 0.5 to 1
CCCCC1C(c2ccc(F)cc2)=NN(c2ccc(F)cc2F)C1(C)C(=O)NCCCOC (centres unmarked) [Compound 5, 4-butyl-1-(2,4-difluorophenyl)-3-(4-fluorophenyl)-N-(3-methoxypropyl)-5-methyl-4,5-dihydro-1H-pyrazole-5-carboxamide] | 1 to 2 | 0.5 to 1 | 1 to 2
CCCCC1C(c2ccc(F)cc2)=NN(c2ccc(F)cc2F)C1(C)C(=O)NCCOC (centres unmarked) [Compound 6, 4-butyl-1-(2,4-difluorophenyl)-3-(4-fluorophenyl)-N-(2-methoxyethyl)-5-methyl-4,5-dihydro-1H-pyrazole-5-carboxamide] | 0.5 to 1 | 0.5 to 1 | 0.5 to 1
CCCCC1C(c2ccc(F)cc2)=NN(c2cccc(F)c2)C1(C)C(=O)NCCCCC(C)(C)O (centres unmarked) [Compound 7, 4-butyl-1-(3-fluorophenyl)-3-(4-fluorophenyl)-N-(5-hydroxy-5-methylhexyl)-5-methyl-4,5-dihydro-1H-pyrazole-5-carboxamide] | 1 to 2 | 0.5 to 1 | > 2
CCCCC1C(c2ccc(F)cc2)=NN(c2cccc(F)c2)C1(C)C(=O)NCCCOC (centres unmarked) [Compound 8, 4-butyl-1-(3-fluorophenyl)-3-(4-fluorophenyl)-N-(3-methoxypropyl)-5-methyl-4,5-dihydro-1H-pyrazole-5-carboxamide] | > 2 | 1 to 2 | > 2
CCCCC1C(c2ccc(F)cc2)=NN(c2cc(F)ccc2F)C1(C)C(=O)NCCCCC(C)(C)O (centres unmarked) [Compound 9, 4-butyl-1-(2,5-difluorophenyl)-3-(4-fluorophenyl)-N-(5-hydroxy-5-methylhexyl)-5-methyl-4,5-dihydro-1H-pyrazole-5-carboxamide] | 0.5 to 1 | 0.5 to 1 | 1 to 2
CCCCC1C(c2ccc(F)c(F)c2)=NN(c2ccccc2)C1(C)C(=O)NCCCCC(C)(C)O (centres unmarked) [Compound 10, 4-butyl-3-(3,4-difluorophenyl)-N-(5-hydroxy-5-methylhexyl)-5-methyl-1-phenyl-4,5-dihydro-1H-pyrazole-5-carboxamide] | 1 to 2 | 0.5 to 1 | > 2
CCCCC1C(c2ccc(F)cc2)=NN(c2ccc(F)c(Cl)c2)C1(C)C(=O)NCCCCC(C)(C)O (centres unmarked) [Compound 11, 4-butyl-1-(3-chloro-4-fluorophenyl)-3-(4-fluorophenyl)-N-(5-hydroxy-5-methylhexyl)-5-methyl-4,5-dihydro-1H-pyrazole-5-carboxamide] | > 2 | 1 to 2 | > 2
CCCCC1C(c2ccc(F)cc2)=NN(c2ccc(Cl)cc2)C1(C)C(=O)NCCCC(C)(C)CO (centres unmarked) [Compound 12, 4-butyl-1-(4-chlorophenyl)-3-(4-fluorophenyl)-N-(5-hydroxy-4,4-dimethylpentyl)-5-methyl-4,5-dihydro-1H-pyrazole-5-carboxamide] | 1 to 2 | 1 to 2 | > 2
CCCCC1C(c2ccc(F)cc2)=NN(c2ccc(Cl)cc2)C1(C)C(=O)NCCCOC (centres unmarked) [Compound 13, 4-butyl-1-(4-chlorophenyl)-3-(4-fluorophenyl)-N-(3-methoxypropyl)-5-methyl-4,5-dihydro-1H-pyrazole-5-carboxamide] | > 2 | > 2 | > 2
CCCCC1C(c2ccc(F)cc2)=NN(c2ccc(F)cc2)C1(C)C(=O)NCCCOC (centres unmarked) [Compound 14, 4-butyl-1,3-bis(4-fluorophenyl)-N-(3-methoxypropyl)-5-methyl-4,5-dihydro-1H-pyrazole-5-carboxamide] | 1 to 2 | 1 to 2 | > 2
CCCCC1C(c2ccc(F)cc2)=NN(c2ccc(C)cc2)C1(C)C(=O)NCCCC(C)(C)CO (centres unmarked) [Compound 15, 4-butyl-3-(4-fluorophenyl)-N-(5-hydroxy-4,4-dimethylpentyl)-5-methyl-1-p-tolyl-4,5-dihydro-1H-pyrazole-5-carboxamide] | 0.25 to 0.5 | 0.25 to 0.5 | 1 to 2
CCCCC1C(c2ccc(F)cc2)=NN(c2ccc(C)cc2)C1(C)C(=O)NCCCOC (centres unmarked) [Compound 16, 4-butyl-3-(4-fluorophenyl)-N-(3-methoxypropyl)-5-methyl-1-p-tolyl-4,5-dihydro-1H-pyrazole-5-carboxamide] | > 2 | 0.5 to 1 | > 2
CCCCC1C(c2ccc(F)cc2)=NN(c2cccc(Cl)c2)C1(C)C(=O)NCCCC(C)(C)CO (centres unmarked) [Compound 17, 4-butyl-1-(3-chlorophenyl)-3-(4-fluorophenyl)-N-(5-hydroxy-4,4-dimethylpentyl)-5-methyl-4,5-dihydro-1H-pyrazole-5-carboxamide] | 1 to 2 | 0.25 to 0.5 | 1 to 2
CCCCC1C(c2ccc(F)cc2)=NN(c2ccc(F)c(OC)c2)C1(C)C(=O)NCCCC(C)(C)CO (centres unmarked) [Compound 18, 4-butyl-1-(4-fluoro-3-methoxyphenyl)-3-(4-fluorophenyl)-N-(5-hydroxy-4,4-dimethylpentyl)-5-methyl-4,5-dihydro-1H-pyrazole-5-carboxamide] | > 2 | > 2 | > 2
CCCCC1C(c2ccc(F)cc2)=NN(c2ccc(F)c(OC)c2)C1(C)C(=O)NCCCOC (centres unmarked) [Compound 19, 4-butyl-1-(4-fluoro-3-methoxyphenyl)-3-(4-fluorophenyl)-N-(3-methoxypropyl)-5-methyl-4,5-dihydro-1H-pyrazole-5-carboxamide] | > 2 | > 2 | > 2
CC(C)(CO)CCCNC(=O)C1(C)C(c2cccs2)C(c2ccc(F)cc2)=NN1c1ccccc1 (centres unmarked) [Compound 20, 3-(4-fluorophenyl)-N-(5-hydroxy-4,4-dimethylpentyl)-5-methyl-1-phenyl-4-(thiophen-2-yl)-4,5-dihydro-1H-pyrazole-5-carboxamide] | 0.5 to 1 | 0.25 to 0.5 | 0.5 to 1
CC(C)(CO)CCCNC(=O)C1(C)C(c2ccncc2)C(c2ccc(F)cc2)=NN1c1ccccc1 (centres unmarked) [Compound 21, 3-(4-fluorophenyl)-N-(5-hydroxy-4,4-dimethylpentyl)-5-methyl-1-phenyl-4-(pyridin-4-yl)-4,5-dihydro-1H-pyrazole-5-carboxamide] | > 2 | > 2 | > 2
CCCCC1C(c2ccc(F)cc2)=NN(c2ccc(F)cc2Cl)C1(C)C(=O)NCCCC(C)(C)CO (centres unmarked) [Compound 22, 4-butyl-1-(2-chloro-4-fluorophenyl)-3-(4-fluorophenyl)-N-(5-hydroxy-4,4-dimethylpentyl)-5-methyl-4,5-dihydro-1H-pyrazole-5-carboxamide] | > 2 | > 2 | > 2
Cn1cccc1C1C(c2ccc(F)cc2)=NN(c2ccc(F)cc2F)C1(C)C(=O)NCCCC(C)(C)CO (centres unmarked) [Compound 93, 1-(2,4-difluorophenyl)-3-(4-fluorophenyl)-N-(5-hydroxy-4,4-dimethylpentyl)-5-methyl-4-(1-methyl-1H-pyrrol-2-yl)-4,5-dihydro-1H-pyrazole-5-carboxamide] | – | > 2 | > 2
COCCNC(=O)C1(C)C(c2cccn2C)C(c2ccc(F)cc2)=NN1c1ccc(F)cc1F (centres unmarked) [Compound 94, 1-(2,4-difluorophenyl)-3-(4-fluorophenyl)-N-(2-methoxyethyl)-5-methyl-4-(1-methyl-1H-pyrrol-2-yl)-4,5-dihydro-1H-pyrazole-5-carboxamide] | – | > 2 | > 2
Cn1cc(C2C(c3ccc(F)cc3)=NN(c3ccc(F)cc3F)C2(C)C(=O)NCCCC(C)(C)CO)cn1 (centres unmarked) [Compound 95, 1-(2,4-difluorophenyl)-3-(4-fluorophenyl)-N-(5-hydroxy-4,4-dimethylpentyl)-5-methyl-4-(1-methyl-1H-pyrazol-4-yl)-4,5-dihydro-1H-pyrazole-5-carboxamide] | – | > 2 | > 2
COCCNC(=O)C1(C)C(c2cnn(C)c2)C(c2ccc(F)cc2)=NN1c1ccc(F)cc1F (centres unmarked) [Compound 96, 1-(2,4-difluorophenyl)-3-(4-fluorophenyl)-N-(2-methoxyethyl)-5-methyl-4-(1-methyl-1H-pyrazol-4-yl)-4,5-dihydro-1H-pyrazole-5-carboxamide] | – | > 2 | > 2
